Assay [1] relates to hybrid milfoil population. Particulars: hybrid milfoil population (B), 6 weeks following applications of various rates, FIG. 2; cited from earlier work.
The subject of assay [2] is auxin herbicide sensitive Eurasian milfoil biotype. Particulars: Eurasian milfoil biotype (A), 6 weeks following applications of various rates, FIG. 2; cited from earlier work.
Assay [3] has as its system tolerant hybrid milfoil lineage from an Upper Midwest US lake. The assay can be described thus: 14-day laboratory apical tissue assay, fluridone herbicide response (beta-carotene). Particulars: 14-day apical tissue assay, various rates of fluridone, compared with the susceptible reference Eurasian milfoil lineage (EWM), n=4, FIG. 3. In kind it is in vivo, hybrid (Northern×Eurasian) watermilfoil. The source says: FIG. 3 depicts fluridone herbicide response of a tolerant hybrid milfoil lineage from an Upper Midwest US lake compared to response of a susceptible reference Eurasian milfoil lineage (EWM) in a 14-day laboratory apical tissue assay. […] Error bars are +1 standard deviation (n=4).

Here are results for 3 compounds from patent publication US20130157858A1, “METHODS AND SYSTEMS USEFUL FOR C[…] WATERMILFOIL” (priority 2011, published 2013).

On to `O=C(O)COc1ccc(Cl)cc1Cl` [2,4-d, 2,4-dichlorophenoxyacetic acid], for which the “response in aboveground biomass (sensitivity/tolerance)” value in assay [1] is recorded as “displaying auxin tolerance”; in assay [2], “sensitive”. On to fluridone, for which the beta-carotene reduction entry in assay [3] was “less beta-carotene reduction for the tolerant hybrid lineage versus the reference Eurasian lineage”. Turning to `O=C(O)COc1nc(Cl)c(Cl)cc1Cl` [triclopyr], the “response in aboveground biomass (sensitivity/tolerance)” value in assay [1] is reported as “displaying auxin tolerance”; in assay [2] it was “sensitive”.
